How the values were obtained:
[1] = Selective precipitation from waste printed circuit boards (Table 3): Sn; details: 20% aqua regia solution from waste printed circuit boards; 0.02 mmol L, 1 hour
Protocol: (§1) End-of-life printed circuit boards were supplied by Edinburgh School of Chemistry workshop. Gold-tipped sections of the circuit boards (22.85 g) were cut off and soaked in 100 mL aqua regia for 24 hours. This solution was then diluted with deionised water to 250 mL and the metal content analysed by ICP-OES.
(§2) An aliquot of the e-waste solution (2 mL) was stirred with L (0.0059 g, 0.02 mmol, excess with respect to the gold concentration) for 1 hour at room temperature after which the stir bar was removed and the vial centrifuged. The supernatant was decanted and samples prepared for ICP-OES analysis to measure the uptake of metal. Samples were diluted by 1000× and 20× in 2% nitric acid prior to ICP-OES analysis. This procedure was repeated in triplicate.

[2] = Precipitation from multi-element ICP standard solutions (FIG. 4, FIG. 25): Tl; details: excess compound, 24 hours, RT
Protocol: (§3) The following ICP multi-element standard solutions were used: Transition metal mix 3 for ICP supplied by Sigma Aldrich comprising 100 mg L^−1 Au, Ir, Os, Pd, Pt, Rh, Ru in 10% hydrochloric acid and ICP multi-element standard solution IV comprising 1000 mg L^−1 Ag, Al, B, Ba, Bi, Ca, Cd, Co, Cr, Cu, Fe, Ga, In, K, Li, Mg, Mn, Na, Ni, Pb, Sr, Tl, Zn in dilute nitric acid.
(§4) Each solution (1 mL) was diluted to 10 mL using either 2 M HCl or 6 M HCl, resulting in solutions of 10 ppm Au, Ir, Os, Pd, Pt, Rh, Ru and 100 mg L^−Al, B, Ba, Bi, Ca, Cd, Co, Cr, Cu, Fe, Ga, In, K, Li, Mg, Mn, Na, Ni, Pb, Sr, Tl, Zn. The solutions were filtered prior to use in precipitation experiments due to the precipitation of silver chloride, which was subsequently excluded from ICP-OES analysis. The precipitation method used for the 0.01 M mixed-metal solutions was followed.
(§5) FIGS. 25(a)-(c) show alternative embodiments of the compounds that were tested. Conditions were: 0.2 mmol of compound contacted with a 2 M or 6 M HCl multi element solution for 24 hours, RT.
(§6) The solution comprised: • 10 mg L^−1 Au, Ir, Os, Pd, Pt, Rh, Ru; and • 100 mg L^−1 Al, B, Ba, Bi, Ca, Cd, Co, Cr, Cu, Fe, Ga, In, K, Li, Mg, Mn, Na, Ni, Pb, Sr, Tl, Zn/

[3] = Precipitation from 0.01 M mixed-metal solution in HCl (FIG. 2): Au
Protocol: (§7) Hydrochloric acid solutions (2 M and 6 M) were prepared by dilution of concentrated hydrochloric acid with deionised water. Mixed-metal solutions (0.01 M) were typically prepared by dilution of 0.1 M stock solutions of each individual metal salt solution in 2 or 6 M HCl.
(§8) Solid compound L (0.2 mmol or 0.02 mmol) was added to a vial with a magnetic stir bar and the metal-containing aqueous solution (2 mL) added. The mixture was stirred for 1 hour at room temperature (20° C.) at 500 rpm after which the stir bar was removed and the vial centrifuged. The supernatant was decanted and samples prepared for ICP-OES analysis to measure the uptake of metal by L. Samples were diluted by 100× in 2% nitric acid prior to ICP-OES analysis. This procedure was repeated in triplicate.
(§9) FIG. 2 is a graph showing percentage metal(s) removed by precipitation from a 0.01 M mixed-metal solution in 2 M or 6 M HCl following the addition of either 0.2 mmol of compound L (10-fold excess L relative to metal) or 0.02 mmol of L (equimolar).

[4] = Precipitation from multi-element ICP standard solutions (FIG. 4, FIG. 25): Fe; details: 6 M HCl multi-element solution (100 mg L^−1 Fe), excess compound, 24 hours, RT
Protocol: as §3, §4, §5, §6

[5] = Selective precipitation from waste printed circuit boards (Table 3): Ni; details: 20% aqua regia solution from waste printed circuit boards; 0.02 mmol L, 1 hour
Protocol: as §1, §2

[6] = Precipitation from multi-element ICP standard solutions (FIG. 4, FIG. 25): Au; details: excess compound, 24 hours, RT
Protocol: as §3, §4, §5, §6

[7] = Quantitative NMR solubility experiments; format: physicochemical
Protocol: ^1H NMR spectra were recorded on a Bruker Avance III 400 MHz spectrometer. 2 M and 6 M HCl solutions were diluted from concentrated HCl in D2O. A 0.1 M solution of L in 2 M or 6 M HCl was prepared by adding L (0.0178 g) to an NMR tube along with the relevant HCl/D2O solution (0.55 mL) and 1 M tert-butanol in D2O (0.05 mL) as an internal standard. Any undissolved solids were allowed to settle to the bottom of the NMR tube before acquiring ^1H NMR spectra.
^1H NMR spectra were acquired for 2 M HCl solutions between 300-350 K in 10 K increments and for 6 M HCl solutions between 300-330 K in 10 K increments; attempts to acquire additional spectra beyond 330 K for these latter samples were unsuccessful due to excessive line broadening of the spectra and difficulties with sample locking.

[8] = Precipitation from multi-element ICP standard solutions (FIG. 4): Pt; details: multi-element ICP standard solutions in HCl, Pt present as Pt(II), excess L
Protocol: as §3, §4

[9] = Precipitation of HAuCl4 by L from 2 M HCl (Table 2); details: 0.01M HAuCl4 in 2M HCl after contact with L
Protocol: Table 2 below describes precipitation of HAuCl4 by L from 2 M HCl followed by its release from L as HAuCl4 using deionised water. All solutions were diluted 100× prior to ICP-OES analysis.

[10] = Selective precipitation from waste printed circuit boards (Table 3): Cu; details: 20% aqua regia solution from waste printed circuit boards; 0.02 mmol L, 1 hour
Protocol: as §1, §2

[11] = Precipitation from 0.01 M mixed-metal solution of precious metals in 6 M HCl (FIG. 10); details: 0.01 M precious metals in 6 M HCl
Protocol: FIG. 10 Graph showing percentage metal(s) removed by precipitation from a 0.01 M mixed-metal solution of precious metals in 6 M HCl following the addition of either 0.2 mmol of compound L (10-fold excess L relative to metal) or 0.02 mmol of L (equimolar);
as §7, §8
Referring to FIG. 10, there is shown a graph depicting percentage metal(s) removed by precipitation from a 0.01 M mixed-metal solution of precious metals in 6 M HCl following the addition of either 0.2 mmol of compound L (10-fold excess L relative to metal) or 0.02 mmol of L (equimolar).

[12] = Gold precipitation from HAuCl4 solutions versus acid concentration and temperature (FIGS. 7-9)
[13] = Precipitation from 0.01 M mixed-metal solution in HCl (FIG. 2): Fe; details: excess L, 0.01 M mixed-metal solution in 6 M HCl
Protocol: as §7, §8, §9

[14] = Precipitation of Au by L from various aqueous matrices (Table 1); details: 0.059 g L, 1 hour, room temperature
Protocol: Conditions: 2 mL Au solution contacted with 0.059 g L for 1 hour, room temperature. Solution filtered and diluted 100× in 2% HNO3 prior to ICP-OES analysis. *HAuCl4 used. **Au^0 added to sulfuric acid solution with a few drops of 30% hydrogen peroxide added to aid dissolution of Au. All solutions were diluted 100× prior to ICP-OES analysis.

[15] = Selective precipitation from waste printed circuit boards (Table 3): Au; details: 20% aqua regia solution from waste printed circuit boards; 0.02 mmol L, 1 hour
Protocol: as §1, §2

[16] = Precipitation from multi-element ICP standard solutions (FIG. 4, FIG. 25): Ga; details: 6 M HCl multi-element solution (100 mg L^−1 Ga), excess compound, 24 hours, RT
Protocol: as §3, §4, §5, §6

[17] = Precipitation from 0.01 M mixed-metal solution in HCl (FIG. 2): Sn; details: excess L, 0.01 M mixed-metal solution in 6 M HCl
Protocol: as §7, §8, §9

[18] = Selective stripping with H-tube apparatus (FIG. 3)
Protocol: Solid L (0.2 mmol) was added to one side of the H-tube with a stir bar. The metal-containing aqueous solution (2 mL) was then added to the solids and the mixture stirred for 1 hour at room temperature at 500 rpm, after which it was passed through the glass frit of the H-tube with the aid of compressed air or N2 gas. The filtrate was collected for ICP-OES analysis to determine metal uptake. The solids were subsequently washed with 2 M HCl (3×2 mL) for 30 mins, with each 2 mL solution being passed through the glass frit of the H-tube. The solids were then washed with ultrapure deionised water (5×2 mL) in the same manner. The use of a H-tube allows for all solids to be retained in the same vessel to minimise any loss of metal due to material transfer. This procedure was repeated in duplicate.
(a) orange bars: Percentage metal removed by precipitation from a 0.01 M mixed-metal solution in 6 M HCl.
(b) green bars: percentage of metal stripped from the precipitate by a 2 M HCl wash.
(c) blue bars: percentage of metal stripped from the precipitate after a subsequent wash with DI water.

[19] = Precipitation from 0.01 M mixed-metal solution in HCl (FIG. 2): Pt; details: excess L, 0.01 M mixed-metal solution in 6 M HCl
Protocol: as §7, §8, §9

[20] = Selective precipitation from waste printed circuit boards (Table 3): Pb; details: 20% aqua regia solution from waste printed circuit boards; 0.02 mmol L, 1 hour
Protocol: as §1, §2

[21] = Precipitation from 0.01 M mixed-metal solution in HCl (FIG. 2): other metals; details: 0.2 mmol solid L (10-fold excess), 0.01 M mixed-metal solution in 2 M HCl
Protocol: as §7, §8, §9

Q: For `CN(CCN(C)C(=O)c1ccccc1)C(=O)c1ccccc1` [L], which “% metal precipitated, Sn” value [1] is on record?
A: 0%

Q: And the “% uptake / precipitation of Tl” value ([2]; 2 M HCl multi-element solution (100 mg L^−1 Tl))?
A: 10%

Q: What about the “% uptake / precipitation of Tl” value ([2]; 6 M HCl multi-element solution (100 mg L^−1 Tl)) of the same molecule?
A: 95%

Q: And the “removal of Au by precipitation” value ([3]; 0.2 mmol solid L (10-fold excess), 0.01 M each of Au, Al, Cu, Ni, Fe, Zn, Pt, Pd, Sn in 2 M HCl)?
A: near quantitative removal of Au

Q: And the “uptake of Au” value ([3]; excess L, 0.01 M mixed-metal solution in 6 M HCl)?
A: complete uptake

Q: What about the “metal uptake (selectivity)” value ([3]; stoichiometric L (0.02 mmol), 0.01 M mixed-metal solution in 2 M HCl) of the same molecule?
A: gold uptake only

Q: What about the “metal uptake (selectivity)” value ([3]; stoichiometric L, 0.01 M mixed-metal solution in 6 M HCl) of the same molecule?
A: selective gold uptake

Q: What about the “% uptake / precipitation of Fe” value [4] of the same molecule?
A: 70%

Q: What about the “% metal precipitated, Ni” value [5] of the same molecule?
A: 0%

Q: What about the “% uptake / precipitation of Au” value ([6]; 2 M HCl multi-element solution (10 mg L^−1 Au)) of the same molecule?
A: 70%

Q: And the “% uptake / precipitation of Au” value ([6]; 6 M HCl multi-element solution (10 mg L^−1 Au))?
A: > 99%

Q: And the concentration of dissolved L ([7]; 2 M HCl, heated to 350 K)?
A: 100 µM

Q: And the Dissolution of L (concentration of dissolved L) ([7]; 2 M HCl, quantitative 1H NMR)?
A: 0.02 mM

Q: What about the concentration of dissolved L ([7]; 6 M HCl, 300 K) of the same molecule?
A: 320 µM

Q: What about the “increase in dissolved L on increasing HCl from 2 M to 6 M” value ([7]; 300 K) of the same molecule?
A: 16 fold

Q: And the Pt uptake [8]?
A: no Pt uptake

Q: What about the “% Precipitation” value [9] of the same molecule?
A: 99.6%

Q: What about the “% metal precipitated, Cu” value [10] of the same molecule?
A: 0%

Q: And the “metal(s) removed by precipitation (selectivity)” value ([11]; equimolar L (0.02 mmol))?
A: selective precipitation of gold over other precious metals

Q: What about the “metal(s) removed by precipitation (selectivity)” value ([11]; excess L (0.2 mmol, 10-fold)) of the same molecule?
A: selective co-precipitation of gold and platinum

Q: What about the “quantity of [HL][AuCl4] precipitated over 5 minutes on raising temperature” value ([12]; 2 M HCl, from 20 to 40° C. and from 40 to 80° C.) of the same molecule?
A: doubles

Q: What about the “precipitation of [HL][AuCl4] on addition of HAuCl4” value ([12]; solution of L in 12 M HCl) of the same molecule?
A: rapid and wholesale precipitation

Q: What about the “uptake of Fe” value [13] of the same molecule?
A: complete uptake

Q: What about the “% Precipitated” value ([14]; 2 mol L^−1 H2SO4 and 2M NaBr, Au^0 with H2O2, initial Au 1930 mg L^−1) of the same molecule?
A: 99.5%

Q: What about the “% Precipitated” value ([14]; 2 mol L^−1 H2SO4 and 2M NaCl, Au^0 with H2O2, initial Au 1940 mg L^−1) of the same molecule?
A: 99.4%

Q: And the “% Precipitated” value ([14]; 20% Aqua regia, HAuCl4 used, initial Au 1920 mg L^−1)?
A: 99.8%

Q: And the “% Precipitated” value ([14]; 100% Aqua regia, HAuCl4 used, initial Au 1920 mg L^−1)?
A: 99.7%

Q: And the “% metal precipitated, Au” value [15]?
A: 98.1%

Q: What about the “% uptake / precipitation of Ga” value [16] of the same molecule?
A: > 99%

Q: What about the “uptake of Sn” value [17] of the same molecule?
A: complete uptake

Q: What about the “metal stripped from the precipitate by a 2 M HCl wash” value ([18]; L loaded with Au, Fe, Pt and Sn at 6 M HCl, then wash with 2 M HCl) of the same molecule?
A: dissolution of Fe, Sn and Pt only, with Au retained on the solids

Q: What about the “metal stripped from the precipitate by subsequent wash with DI water” value ([18]; isolated solids after the 2 M HCl wash, washed with DI water) of the same molecule?
A: releases the Au into solution

Q: And the “uptake of Pt” value [19]?
A: complete uptake

Q: And the “% metal precipitated, Pb” value [20]?
A: 0%

Q: And the “co-precipitation of other metals” value [21]?
A: < 5%
